Measured values: US20060211026A1, “Methods for assessing emphysema” (Roche Palo Alto LLC, priority 2005, published 2006)

Key:
Format in all cases: in vivo, Sprague-Dawley rats
tropoelastin = assay: Tropoelastin ELISA in homogenized lung tissue of smoke-exposed rats; details: oral daily 30 days after 8 months smoke; ATRA 3 mg/kg, R667 0.07-0.7 mg/kg; FIG. 1
Procedure: FIG. 1 depicts the amount of tropoelastin (in ng) measured in rats after treatment as set forth in Example 1(B).
(§1) (B) Adult male Sprague-Dawley rats were exposed daily to 10 cigarettes/rat for 8 months (control rats were exposed to air) to establish emphysema lesions. […] Supernatant from homogenized lung tissue was analyzed for concentration of tropoelastin by ELISA (using rabbit anti-tropoelastin; Elastin Products Co.).

[1] = tested on: gene expression in lung right lobes of 8 months smoked rats; assay: Lung gene expression by quantitative PCR in smoke-exposed rats; details: for Adam17 gene expression relative to 8 months smoked rats / Angpt1 gene expression relative to 8 months smoked rats / Areg gene expression relative to 8 months smoked rats / Colla1 gene expression relative to 8 months smoked rats / Crabp2 gene expression relative to 8 months smoked rats / Csf2 gene expression relative to 8 months smoked rats / Cxcl1 gene expression relative to 8 months smoked rats / Cxcl2 gene expression relative to 8 months smoked rats / Cxcl5 gene expression relative to 8 months smoked rats / Cyp26a1 gene expression relative to 8 months smoked rats / EGFR gene expression relative to 8 months smoked rats / Eln gene expression relative to 8 months smoked rats / FGF7 gene expression relative to 8 months smoked rats / Flt1 gene expression relative to 8 months smoked rats / Hif1a gene expression relative to 8 months smoked rats / HpGF gene expression relative to 8 months smoked rats / Hyou1 gene expression relative to 8 months smoked rats / Il6 gene expression relative to 8 months smoked rats / Il8ra/CXCR1 gene expression relative to 8 months smoked rats / Il8rb/CXCR2 gene expression relative to 8 months smoked rats / Kdr gene expression relative to 8 months smoked rats / Mmp9 gene expression relative to 8 months smoked rats / Mmp12 gene expression relative to 8 months smoked rats / PDGFA gene expression relative to 8 months smoked rats / Pgf gene expression relative to 8 months smoked rats / Rbp1 gene expression relative to 8 months smoked rats / Serpina1 gene expression relative to 8 months smoked rats / Sftpa1 gene expression relative to 8 months smoked rats / Sftpb gene expression relative to 8 months smoked rats / Slpi gene expression relative to 8 months smoked rats / TNF gene expression relative to 8 months smoked rats / Tek gene expression relative to 8 months smoked rats / Tgfb1 gene expression relative to 8 months smoked rats / Tgfbr2 gene expression relative to 8 months smoked rats / Tgm2 gene expression relative to 8 months smoked rats / Timp3 gene expression relative to 8 months smoked rats / VEGFa gene expression relative to 8 months smoked rats: rat lung
Procedure: as §1
RNA prepared from snap-frozen lung right lobes was analyzed for gene expression by quantitative PCR, using ABI Taqman following standard procedures.

[2] = tested on: gene expression in lung right lobes of 8 months smoked rats; assay: Lung gene expression by Affymetrix microarray in smoke-exposed rats
Procedure: as §1
Three individual lung right lobes from each condition were processed to extract mRNA according to standard Affymetrix protocols, and samples hybridized to Affymetrix Rat Expression Set 230 microarrays. Gene expression was analyzed using the Bioconductor package (Gentleman et al., Genome Biol (2004) v. 5), and differentially expressed genes selected using ANOVA model followed by Dunnett's test.

[3] = R667 0.07 mg/kg oral daily 30 days
[4] = R667 0.15 mg/kg oral daily 30 days
[5] = R667 0.7 mg/kg oral daily 30 days

For `CC1=C(/C=C/C(C)=C/C=C/C(C)=C/C(=O)O)C(C)(C)CCC1` [ATRA, all-trans retinoic acid, reference compound], the “Tropoelastin in lung tissue (effect of treatment)” value (tropoelastin) was “partially restored”.

`CC1(C)CCC(C)(C)c2cc(Cn3cccn3)c(C=Cc3ccc(C(=O)O)cc3)cc21` [R667, 4-[2-(5,5,8,8-tetramethyl-3-pyrazol-1-ylmethyl-5,6,7,8-tetrahydronaphthalen2-yl)-vinyl]-benzoic acid] was tested, and the “Adam17 gene expression relative to 8 months smoked rats” value [1, 3] was 3.5, the “Angpt1 gene expression relative to 8 months smoked rats” value [1, 3] was 3.8 and the “Areg gene expression relative to 8 months smoked rats” value [1, 3] was 5.9. For the same molecule, the “Colla1 gene expression relative to 8 months smoked rats” value [1, 3] was 7.1, the “Crabp2 gene expression relative to 8 months smoked rats” value [1, 3] was 2.0 and the “Csf2 gene expression relative to 8 months smoked rats” value [1, 3] was 1.5. The “Cxcl1 gene expression relative to 8 months smoked rats” value [1, 3] was 3.3, the “Cxcl2 gene expression relative to 8 months smoked rats” value [1, 3] was 2.3 and the “Cxcl5 gene expression relative to 8 months smoked rats” value [1, 3] was 50.1. The “Cyp26a1 gene expression relative to 8 months smoked rats” value [1, 3] was 2.2, the “EGFR gene expression relative to 8 months smoked rats” value [1, 3] was 4.8 and the “Eln gene expression relative to 8 months smoked rats” value [1, 3] was 5.6. The “FGF7 gene expression relative to 8 months smoked rats” value [1, 3] was 2.1, the “Flt1 gene expression relative to 8 months smoked rats” value [1, 3] was 1.7 and the “Hif1a gene expression relative to 8 months smoked rats” value [1, 3] was 1.7. The “HpGF gene expression relative to 8 months smoked rats” value [1, 3] was 3.0, the “Hyou1 gene expression relative to 8 months smoked rats” value [1, 3] was 2.7 and the “Il6 gene expression relative to 8 months smoked rats” value [1, 3] was 1.8. For the same molecule, the “Il8ra/CXCR1 gene expression relative to 8 months smoked rats” value [1, 3] was 3.8, the “Il8rb/CXCR2 gene expression relative to 8 months smoked rats” value [1, 3] was 2.0 and the “Kdr gene expression relative to 8 months smoked rats” value [1, 3] was 1.3. For the same molecule, the “Mmp9 gene expression relative to 8 months smoked rats” value [1, 3] was 1.7, the “Mmp12 gene expression relative to 8 months smoked rats” value [1, 3] was 4.9 and the “PDGFA gene expression relative to 8 months smoked rats” value [1, 3] was 4.3. The “Pgf gene expression relative to 8 months smoked rats” value [1, 3] was 1.6, the “Rbp1 gene expression relative to 8 months smoked rats” value [1, 3] was 2.1 and the “Serpina1 gene expression relative to 8 months smoked rats” value [1, 3] was 2.3. For the same molecule, the “Sftpa1 gene expression relative to 8 months smoked rats” value [1, 3] was 5.4, the “Sftpb gene expression relative to 8 months smoked rats” value [1, 3] was 1.9 and the “Slpi gene expression relative to 8 months smoked rats” value [1, 3] was 3.6. The “TNF gene expression relative to 8 months smoked rats” value [1, 3] was 3.3, the “Tek gene expression relative to 8 months smoked rats” value [1, 3] was 1.4 and the “Tgfb1 gene expression relative to 8 months smoked rats” value [1, 3] was 1.4. The “Tgfbr2 gene expression relative to 8 months smoked rats” value [1, 3] was 2.0, the “Tgm2 gene expression relative to 8 months smoked rats” value [1, 3] was 16.2 and the “Timp3 gene expression relative to 8 months smoked rats” value [1, 3] was 3.5. The “VEGFa gene expression relative to 8 months smoked rats” value [1, 3] was 1.6, the “Adam17 gene expression relative to 8 months smoked rats” value [1, 4] was 3.6 and the “Angpt1 gene expression relative to 8 months smoked rats” value [1, 4] was 1.8. The “Areg gene expression relative to 8 months smoked rats” value [1, 4] was 3.7, the “Colla1 gene expression relative to 8 months smoked rats” value [1, 4] was 8.4 and the “Crabp2 gene expression relative to 8 months smoked rats” value [1, 4] was 1.5. For the same molecule, the “Csf2 gene expression relative to 8 months smoked rats” value [1, 4] was 1.9, the “Cxcl1 gene expression relative to 8 months smoked rats” value [1, 4] was 2.9 and the “Cxcl2 gene expression relative to 8 months smoked rats” value [1, 4] was 1.6. For the same molecule, the “Cxcl5 gene expression relative to 8 months smoked rats” value [1, 4] was 50.0, the “Cyp26a1 gene expression relative to 8 months smoked rats” value [1, 4] was 3.9 and the “EGFR gene expression relative to 8 months smoked rats” value [1, 4] was 3.2. For the same molecule, the “Eln gene expression relative to 8 months smoked rats” value [1, 4] was 6.1, the “FGF7 gene expression relative to 8 months smoked rats” value [1, 4] was 2.1 and the “Flt1 gene expression relative to 8 months smoked rats” value [1, 4] was 1.8. The “Hif1a gene expression relative to 8 months smoked rats” value [1, 4] was 1.4, the “HpGF gene expression relative to 8 months smoked rats” value [1, 4] was 3.1 and the “Hyou1 gene expression relative to 8 months smoked rats” value [1, 4] was 3.3. For the same molecule, the “Il6 gene expression relative to 8 months smoked rats” value [1, 4] was 2.4, the “Il8ra/CXCR1 gene expression relative to 8 months smoked rats” value [1, 4] was 4.5 and the “Il8rb/CXCR2 gene expression relative to 8 months smoked rats” value [1, 4] was 2.0. For the same molecule, the “Kdr gene expression relative to 8 months smoked rats” value [1, 4] was 1.9, the “Mmp9 gene expression relative to 8 months smoked rats” value [1, 4] was 1.5 and the “Mmp12 gene expression relative to 8 months smoked rats” value [1, 4] was 5.9. For the same molecule, the “PDGFA gene expression relative to 8 months smoked rats” value [1, 4] was 2.9, the “Pgf gene expression relative to 8 months smoked rats” value [1, 4] was 0.9 and the “Rbp1 gene expression relative to 8 months smoked rats” value [1, 4] was 3.5. The “Serpina1 gene expression relative to 8 months smoked rats” value [1, 4] was 1.5, the “Sftpa1 gene expression relative to 8 months smoked rats” value [1, 4] was 4.4 and the “Sftpb gene expression relative to 8 months smoked rats” value [1, 4] was 2.1. For the same molecule, the “Slpi gene expression relative to 8 months smoked rats” value [1, 4] was 1.6, the “TNF gene expression relative to 8 months smoked rats” value [1, 4] was 4.2 and the “Tek gene expression relative to 8 months smoked rats” value [1, 4] was 1.3. The “Tgfb1 gene expression relative to 8 months smoked rats” value [1, 4] was 2.0, the “Tgfbr2 gene expression relative to 8 months smoked rats” value [1, 4] was 1.5 and the “Tgm2 gene expression relative to 8 months smoked rats” value [1, 4] was 28.3. The “Timp3 gene expression relative to 8 months smoked rats” value [1, 4] was 2.9, the “VEGFa gene expression relative to 8 months smoked rats” value [1, 4] was 2.3 and the “Adam17 gene expression relative to 8 months smoked rats” value [1, 5] was 7.8. The “Angpt1 gene expression relative to 8 months smoked rats” value [1, 5] was 3.1, the “Areg gene expression relative to 8 months smoked rats” value [1, 5] was 7.2 and the “Colla1 gene expression relative to 8 months smoked rats” value [1, 5] was 7.9. The “Crabp2 gene expression relative to 8 months smoked rats” value [1, 5] was 1.4, the “Csf2 gene expression relative to 8 months smoked rats” value [1, 5] was 2.9 and the “Cxcl1 gene expression relative to 8 months smoked rats” value [1, 5] was 6.5. The “Cxcl2 gene expression relative to 8 months smoked rats” value [1, 5] was 3.4, the “Cxcl5 gene expression relative to 8 months smoked rats” value [1, 5] was 81.6 and the “Cyp26a1 gene expression relative to 8 months smoked rats” value [1, 5] was 3.7. For the same molecule, the “EGFR gene expression relative to 8 months smoked rats” value [1, 5] was 4.0, the “Eln gene expression relative to 8 months smoked rats” value [1, 5] was 9.4 and the “FGF7 gene expression relative to 8 months smoked rats” value [1, 5] was 1.6. For the same molecule, the “Flt1 gene expression relative to 8 months smoked rats” value [1, 5] was 2.6, the “Hif1a gene expression relative to 8 months smoked rats” value [1, 5] was 2.0 and the “HpGF gene expression relative to 8 months smoked rats” value [1, 5] was 5.6. The “Hyou1 gene expression relative to 8 months smoked rats” value [1, 5] was 5.8, the “Il6 gene expression relative to 8 months smoked rats” value [1, 5] was 4.5 and the “Il8ra/CXCR1 gene expression relative to 8 months smoked rats” value [1, 5] was 4.2. For the same molecule, the “Il8rb/CXCR2 gene expression relative to 8 months smoked rats” value [1, 5] was 2.5, the “Kdr gene expression relative to 8 months smoked rats” value [1, 5] was 1.7 and the “Mmp9 gene expression relative to 8 months smoked rats” value [1, 5] was 1.9. The “Mmp12 gene expression relative to 8 months smoked rats” value [1, 5] was 7.3, the “PDGFA gene expression relative to 8 months smoked rats” value [1, 5] was 4.5 and the “Pgf gene expression relative to 8 months smoked rats” value [1, 5] was 2.7. The “Rbp1 gene expression relative to 8 months smoked rats” value [1, 5] was 3.9, the “Serpina1 gene expression relative to 8 months smoked rats” value [1, 5] was 2.9 and the “Sftpa1 gene expression relative to 8 months smoked rats” value [1, 5] was 7.0. The “Sftpb gene expression relative to 8 months smoked rats” value [1, 5] was 2.9, the “Slpi gene expression relative to 8 months smoked rats” value [1, 5] was 4.4 and the “TNF gene expression relative to 8 months smoked rats” value [1, 5] was 4.0. The “Tek gene expression relative to 8 months smoked rats” value [1, 5] was 1.3, the “Tgfb1 gene expression relative to 8 months smoked rats” value [1, 5] was 3.2 and the “Tgfbr2 gene expression relative to 8 months smoked rats” value [1, 5] was 2.1. For the same molecule, the “Tgm2 gene expression relative to 8 months smoked rats” value [1, 5] was 24.6, the “Timp3 gene expression relative to 8 months smoked rats” value [1, 5] was 4.8 and the “VEGFa gene expression relative to 8 months smoked rats” value [1, 5] was 2.9. For the same molecule, the “Restoration of smoke-suppressed gene expression in lung” value ([1]; rats smoked 8 months, then R667 daily 30 days) was “restore expression of these genes to near-normal levels”, the “Tropoelastin in lung tissue (effect of treatment)” value (tropoelastin) was “partially restored” and the “ELN expression level from microarray, relative to the 8 months smoked rat” value [2, 3] was 2.8 fold. The “VEGF expression level from microarray, relative to the 8 months smoked rat” value [2, 3] was 1.7 fold, the “ELN expression level from microarray, relative to the 8 months smoked rat” value [2, 4] was 3.1 fold and the “VEGF expression level from microarray, relative to the 8 months smoked rat” value [2, 4] was 1.5 fold. The “ELN expression level from microarray, relative to the 8 months smoked rat” value [2, 5] was 3.8 fold and the “VEGF expression level from microarray, relative to the 8 months smoked rat” value [2, 5] was 2.4 fold.
